Test results as given in patent US11299509B2, “Trigger-activatable sugar conjugates for cancer-selective labeling and targeting” (The Board of Trustees of the University of Illinois, priority 2017, dated 2022).

Assays:
[1] = system: HepG2 (liver cancer) cells; assay: Metabolic azido-sugar cell labeling, DBCO-Cy5 detection by flow cytometry; assay type: cell-based; settings: for Cell labeling (Cy5 fluorescence on the cell surface): 50 μM sugar, 72 h, DBCO-Cy5 25 μM, no UV
Protocol: (§1) These cells were incubated with Ac4GalNAz (AAG), Ac3GalNAzEt (AAG-Et), and PBS respectively for three days.
(§2) It is known that galactosamine can be preferentially taken up by hepatocytes (a type of liver cells) due to the presence of cell receptors such as asialoglycoprotein receptor (ASGPR). Tetraacetyl-N-azidoacetylgalactosamine (AAG) is relative hydrophobic and can passively diffuse into cells through hydrophobic interactions with the lipid cell membrane while N-azidoacetylgalactosamine (AG) is too hydrophilic to penetrate the lipid barrier by passive diffusion. Therefore, AG can only be taken up by cells through receptor-mediated endocytosis.
(§3) Cells were seeded onto coverslips in a 6-well plate at a cell density of 40 k/well. AAG or AAG derivatives were added and incubated with cells for 72 h. […] The opti-MEM was then removed and cells were washed with PBS three times. Cells were lifted by incubating with trypsin solution (100 μL) at 37° C. for 5 min and transferred to test tubes with addition of 4% PFA solution (0.4 mL). Ten thousand cells per sample were analyzed by flow cytometry and data analysis was performed on the FCS Express software.
(§4) AAG-Nb with a final concentration of 50 μM was added. UV light (10 mW/m^2) was applied for 15 min at the start of incubation, and the cells were further incubated for 72 h. Cells without UV irradiation were continuously incubated for 72 h. Cell samples for flow cytometry were then prepared following the above-mentioned procedures.

[2] = system: MDA-MB-231 (triple negative breast cancer) cells; assay: as above; assay type: cell-based; settings: 50 μM sugar, 72 h, DBCO-Cy5 25 μM, no UV
Protocol: as §1, §2, §3, §4

Jurkat (lymphoma) cells = assay: as above; assay type: cell-based; settings: 50 μM sugar, 72 h, DBCO-Cy5 25 μM, no UV
Protocol: as §1, §2, §3, §4

HepG2 liver cancer cells [3] = assay: SDS-PAGE analysis of cells treated with azido-sugars; assay type: cell-based; settings: 72 h, DBCO-Cy5 25 μM
Protocol: HepG2 liver cancer cells were seeded onto 6-well plate at a cell density of 40 k/well. Different azido-sugars at different concentrations were added and incubated with cells for 72 h. After removal of medium and multiple washing steps, DBCO-Cy5 (25 μM) in opti-MEM was added and incubated with cells at 37° C. for 1 h. The opti-MEM was then removed and cells were washed with PBS three times. The cells were homogenized in 150 μL of lysis buffer (RIPA) containing protease inhibitor. The lysate was incubated at 4° C. for 30 min, followed by centrifugation at 5000 rcf for 5 min to remove insoluble debris. The total concentration of soluble protein in each sample was determined by bicinchoninic acid (BCA) assay and adjusted to the same concentration. 4× loading buffer was added to each sample and 15 μL samples containing 20 μg protein were loaded onto 10% SDS-PAGE gel after heating at 95° C. The gel was run for 60 min under 150 V. Cy-5 fluorescence was imaged by Imagequant LAS 4010 Luminescent image analyzer and the gel was further stained by coomassie blue

HepG2 liver cancer cells [4] = assay: Confocal imaging of azido-sugar labeled cells; assay type: cell-based; settings: DBCO-Cy5 stain
Protocol: Cells were seeded onto coverslips in a 6-well plate at a cell density of 40 k/well. Ac4GalNAz (AAG) or AAG derivatives were added with a final concentration of 50 μM and the cells were incubated at 37° C. for 72 h. The medium was removed and washed with PBS for three times. DBCO-Cy5 (25 μM) in Opti-MEM was then added and the cells were incubated for another 1 h. Then the medium was removed, and the cells were washed with PBS three times. 4% paraformaldehyde (PFA) solution was added to fix the cells for 10 min, followed by staining of cell nucleus with Hoechst (1 μg/mL) and staining of cell membrane with cell mask orange (5 ug/mL) for 10 min. The coverslips were mounted on microscope slides with the addition of ProLong Gold antifade reagent, and the prepared sample was stored in dark for imaging.

HepG2 liver cancer cells [5] = assay: MTT cell viability assay of azido-sugars; assay type: cell-based; settings: up to 200 μM, 72 h
Protocol: HepG2 liver cancer cells were seeded onto coverslips in a 6-well plate at a cell density of 40 k/well. Different azido-sugars (AG, AAG, and AAM) at different concentrations (50 μM-200 μM) were added, and the cells were incubated at 37° C. for 72 h. The medium was removed. Then 20 μL 3-(4,5-dimethyl-2-thiazolyl)-2,5-diphenyl-2H-tetrazolium bromide (MTT) (5 mg/mL in PBS) was added and cultured at 37° C. for 4 h. MTT is a substrate that provides a colorimetric signal in response to viable mitochondria. Following solubilization by 100 μl DMSO, absorbance at 570 nm was measured using a plate reader.

physchem = assay: physchem
Protocol: Two DBCO-doxorubicin conjugates were synthesized with a cathepsin-B responsive peptide linker (VC). A tetraethyleneglycol unit was incorporated to improve the solubility of the conjugates (FIG. 7). A sulfonic acid-containing conjugate, sulfo-DBCO-TEG-VC-DOX was also prepared to further improve the solubility of the conjugate. […] The solubility of the two conjugates were first tested.
DBCO-DM1 conjugates (FIG. 11) were then synthesized through well-established chemistries. A polyethylene glycol 5000 was used in the design to serve the following purpose: 1. […] To increase the hydrophilicity of the drug conjugate such that its passive uptake in non-azide labeled cells can be reduced; 3. To increase the blood circulation half-time (pharmacokinetics) of the molecule in vivo.

[6] = Maximum tolerable dose (MTD) after i.v. injection; settings: CD-1, mouse, in vivo
Protocol: (§5) The maximum tolerable dose (MTD) of the two conjugates were also evaluated in CD-1 mice (FIG. 9). […] The sulfo-DBCO-TEG-VC-DOX was injected using PBS with only one time administration.
(§6) The maximum tolerable dose (MTD) of the two conjugates were also evaluated in mice (FIG. 15).
(§7) A model DBCO-paclitaxel conjugate, PTX-TEG-DBCO was prepared through well-established reactions.

CD-1 mice = assay: Maximum tolerable dose (MTD) after i.v. injection; settings: for Maximum tolerable dose (MTD): single i.v. injection, <20% body weight loss
Protocol: as §5, §6, §7

[7] = system: MDA-MB-231 breast cancer cell; assay: MTT assay to evaluate in vitro cytotoxicity; assay type: cell-based; settings: 72 hours
Protocol: Standard MTT protocol was followed to evaluate the cytotoxicity of DBCO-drug conjugate. Briefly, MDA-MB-231 cells were seeded in 96-well plate at 3000 cells/well in 100 μL DMEM medium and were allowed to attach overnight. 10 μL DBCO-drug conjugate solution was added into the well to the designated final concentration and incubated at 37° C. for 72 hours. PBS was taken as 100% control. 20 μL 5 mg/mL MTT solution was added to the medium and incubated at 37° C. for 3 hours.

[8] = system: a variety of breast cancer cell lines; settings: down to; cited from earlier work

SMILES: CC(=O)OC[C@H]1OC(OC(C)=O)[C@H](NC(=O)CN=[N+]=[N-])[C@@H](OC(C)=O)[C@H]1OC(C)=O (stereo partly shown) [AAG, Tetraacetyl-N-azidoacetylgalactosamine]
- Cell labeling (Cy5 fluorescence on the cell surface) [1]: efficiently labeled
- Cell labeling (Cy5 fluorescence on the cell surface) [2]: efficiently labeled
- Cell labeling (Cy5 fluorescence on the cell surface) (Jurkat (lymphoma) cells): efficiently labeled

SMILES: CC(=O)OC[C@H]1OC(OC(C)=O)[C@@H](NC(=O)CN=[N+]=[N-])[C@@H](OC(C)=O)[C@@H]1OC(C)=O (stereo partly shown) [AAM, tetraacetyl-N-azidoacetylmannosamine]
- Cell labeling (Cy5 fluorescence on the cell surface) [1]: efficiently labeled
- Cell labeling (Cy5 fluorescence on the cell surface) [2]: efficiently labeled
- Cell labeling (Cy5 fluorescence on the cell surface) (Jurkat (lymphoma) cells): efficiently labeled

SMILES: [N-]=[N+]=NCC(=O)N[C@H]1C(O)O[C@H](CO)[C@H](O)[C@@H]1O (stereo partly shown) [AG, N-azidoacetylgalactosamine]
- Azide groups on cell surface membrane protein (SDS-PAGE, Cy5 fluorescence) (HepG2 liver cancer cells [3]): did containing azide groups
- Localization of labeling (confocal microscopy) (HepG2 liver cancer cells [4]): mainly localized on cell membrane
- Cell labeling (Cy5 fluorescence on the cell surface) [1]: positively labeled
- Concentration dependence of labeling ([1]; concentration increased from 25 μM to 200 μM): increased significantly
- Cell labeling (Cy5 fluorescence on the cell surface) [2]: only HepG2 cells were positively labeled
- Cell labeling (Cy5 fluorescence on the cell surface) (Jurkat (lymphoma) cells): only HepG2 cells were positively labeled
- Toxicity to cells (MTT) (HepG2 liver cancer cells [5]): not toxic

SMILES: COc1cccc2c1C(=O)c1c(O)c3c(c(O)c1C2=O)C[C@@](O)(C(=O)CO)C[C@@H]3O[C@H]1C[C@H](NC(=O)OCc2ccc(NC(=O)C(CCCNC(N)=O)NC(=O)[C@@H](NC(=O)CCOCCOCCOCCOCCNC(=O)CCC(=O)N3Cc4ccccc4C#Cc4ccccc43)C(C)C)cc2)[C@H](O)[C@H](C)O1 (stereo partly shown) [DBCO-TEG-VC-DOX]
- solubility (physchem; aqueous buffer): < 50 µM
- solubility (physchem; aqueous with cosolvent or surfactant or cyclodextrin): ~3500 µg/mL
- MTD [6]: > 204 mg/kg
- Body weight change (CD-1 mice; mouse, in vivo): No significant body weight loss

SMILES: COc1cc2cc(c1Cl)N(C)C(=O)C[C@H](OC(=O)[C@H](C)N(C)C(=O)CCS)[C@]1(C)O[C@H]1[C@H](C)[C@@H]1C[C@@](O)(NC(=O)O1)[C@H](OC)/C=C/C=C(\C)C2 [DM1, Mertansine]
- IC50 [7]: ~0.03 nM
- in vitro IC50 value [8]: tens

SMILES: CC(=O)O[C@H]1C(=O)[C@@]2(C)C([C@H](OC(=O)c3ccccc3)[C@]3(O)C[C@H](OC(=O)[C@H](OC(=O)COCCOCCOCCOCCNC(=O)CCC(=O)N4Cc5ccccc5C#Cc5ccccc54)[C@@H](NC(=O)c4ccccc4)c4ccccc4)C(C)=C1C3(C)C)[C@]1(OC(C)=O)CO[C@@H]1C[C@@H]2O (stereo partly shown) [PTX-TEG-DBCO]
- MTD ([6]; iv): > 200 mg/kg

SMILES: N.N.[Cl][Pt][Cl] [cisplatin, reference compound]
- Maximum tolerable dose (MTD) (CD-1 mice; CD-1 mice): about 5 mg/kg
- Maximum tolerable dose (MTD) (CD-1 mice; CD-1 mice, listed as cis-platin): 5 mg/kg

SMILES: COc1cccc2c1C(=O)c1c(O)c3c(c(O)c1C2=O)C[C@@](O)(C(=O)CO)C[C@@H]3O[C@H]1C[C@H](NC(=O)OCc2ccc(NC(=O)C(CCCNC(N)=O)NC(=O)[C@@H](NC(=O)CCC(=O)NCCOCCOCCOCCOCCC(=O)NCC(C(=O)NCCC(=O)N3Cc4ccccc4C#Cc4ccccc43)S(=O)(=O)O)C(C)C)cc2)[C@H](O)[C@H](C)O1 (stereo partly shown) [sulfo-DBCO-TEG-VC-DOX]
- solubility (physchem; aqueous buffer): 8000 to 10000 µg/mL
- MTD ([6]; iv): > 120 mg/kg
- Body weight change (CD-1 mice; CD-1 mice, one time administration in PBS, up to highest dose used): No body weight decrease
